Experimental data reported in article PMC8580996, “2-Oxoglutarate derivatives can selectively enhance or inhibit the activity of human oxygenases” (Nature Communications, 2021).
“And” between values parts separate entries of the source, which are not always exact repeats. Equal values may be shown once.

Tests used:
FIH = FIH (Homo sapiens, UniProt Q9NWT6); experiment: FIH steady-state kinetic parameters (SPE-MS, initial hydroxylation rates); format: biochemical; design: slope of initial reaction rate: unit not given here
Chain of FIH (Q9NWT6 whole entry): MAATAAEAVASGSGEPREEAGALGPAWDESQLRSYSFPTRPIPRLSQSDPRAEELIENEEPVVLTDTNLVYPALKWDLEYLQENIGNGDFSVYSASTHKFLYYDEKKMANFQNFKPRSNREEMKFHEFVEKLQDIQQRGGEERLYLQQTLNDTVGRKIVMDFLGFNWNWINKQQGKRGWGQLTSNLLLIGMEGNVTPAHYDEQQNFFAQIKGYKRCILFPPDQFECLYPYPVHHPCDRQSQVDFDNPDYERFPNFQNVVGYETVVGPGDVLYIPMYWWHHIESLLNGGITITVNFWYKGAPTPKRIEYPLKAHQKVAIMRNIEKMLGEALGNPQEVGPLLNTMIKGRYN
Procedure: Final 2OG/2OG derivative concentrations are given in Supplementary Figs. 5 and 6. Reactions were monitored with a rate of ~1 sample/40 s using the same SPE-MS configuration as described above. Data were analyzed as described above and the slopes of the initial reaction rates (Supplementary Figs. 5 and 6) fitted to a Michaelis–Menten plot using non-linear regression (GraphPad Prism 5). […]
determine kinetic parameters for 2OG derivatives (continues on the following page). Maximum velocities (vapp ) and Michaelis constants (Kapp) of FIH were determined in independent triplicates for 2OG and the 2OG […]
SPE-MS as described in the Methods section. […]
acid (LAA), and 20 μM ammonium iron(II) sulfate hexahydrate (FAS, (NH4)2Fe(SO4)2·6H2O) in buffer (50 mM […]
Tris, 50 mM NaCl, pH 7.5, 20° C). […]
data are provided as a Source Data file. […]
concentrations of 2OG; (b) hydroxylation rates used to determine kinetic parameters of FIH for 2OG; (c) time […]
3-methyl-2OG (1); (d) hydroxylation rates used to determine kinetic parameters of FIH for 1; (e) time course of […]
2OG (12); (f) hydroxylation rates used to determine kinetic parameters of FIH for 12; (g) time course of the FIH- […]
(h) hydroxylation rates used to determine kinetic parameters of FIH for 14; (i) time course of the FIH-catalyzed […]
(carboxycarbonyl)cyclopentane-1-carboxylic acid (22); (j) hydroxylation rates used to determine kinetic parameters of FIH for 22.
Supplementary Figure 6. Hydroxylation rates of FIH-catalyzed CA1-20 hydroxylations used to determine kinetic parameters for 2OG derivatives (continues on the following page). Maximum velocities (vapp ) and […]
ammonium iron(II) sulfate hexahydrate (FAS, (NH4)2Fe(SO4)2·6H2O) in buffer (50 mM Tris, 50 mM NaCl, pH […]
Source data are provided as a Source […]
of 2OG; (b) hydroxylation rates used to determine kinetic parameters of FIH for 2OG; (c) time course of the FIH-catalyzed hydroxylation reaction of the CA1-20 peptide for the shown concentrations of 3-methyl-2OG (1); (d) hydroxylation rates used to determine kinetic parameters of FIH for 1; (e) time course of the FIH -catalyzed hydroxylation reaction of the CA 1-20 peptide for the shown concentrations of 4 -methyl-2OG (12); (f) hydroxylation rates used to determine kinetic parameters of FIH for 12; (g) time course of the FIH-catalyzed hydroxylation reaction of the CA1-20 peptide for the shown concentrations of 4-ethyl-2OG (14); (h) hydroxylation rates used to determine kinetic parameters of FIH for 14; (i) time course of the FIH-catalyzed hydroxylation reaction of the CA1-20 peptide for the shown concentrations of 3-(carboxycarbonyl)cyclopentane-1-carboxylic acid (22); (j) hydroxylation rates used to determine kinetic parameters of FIH for 22.

AspH = molecular target: T1, AspH (Homo sapiens, UniProt Q12797); design: method as in PMID 34163896; details: hFX-CP101–119 substrate, 330 μM 2OG or 2OG derivative, t = 15 min; cited from earlier work
T1 construct: the tetratricopeptide repeat domain (His6-AspH315-758), was produced and purified as previously reported; made in house
T1 sequence (Q12797 315-758): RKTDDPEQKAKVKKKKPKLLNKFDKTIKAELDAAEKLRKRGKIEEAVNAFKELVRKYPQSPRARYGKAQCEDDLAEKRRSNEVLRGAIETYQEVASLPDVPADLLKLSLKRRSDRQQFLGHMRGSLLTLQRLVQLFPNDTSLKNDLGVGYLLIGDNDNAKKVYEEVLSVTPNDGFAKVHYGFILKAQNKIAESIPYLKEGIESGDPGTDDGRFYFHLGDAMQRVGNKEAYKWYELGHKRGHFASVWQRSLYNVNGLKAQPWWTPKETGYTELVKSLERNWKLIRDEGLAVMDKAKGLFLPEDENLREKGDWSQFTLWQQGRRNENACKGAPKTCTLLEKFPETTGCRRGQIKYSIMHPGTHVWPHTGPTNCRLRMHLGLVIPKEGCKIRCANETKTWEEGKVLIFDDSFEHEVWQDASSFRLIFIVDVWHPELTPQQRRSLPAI

## CC(CC(=O)O)C(=O)C(=O)O (centres unmarked) [compound 1, 3-methyl-2OG]
FIH; 0.5 uM compound 1, time 2.098 min
  SPE-MS determined concentration of hydroxylated HIF-1a peptide: 0.06331 µM and 0.08965 µM and 0.06287 µM
FIH; 0.5 uM compound 1, time 2.797 min
  SPE-MS determined concentration of hydroxylated HIF-1a peptide: 0.08372 µM and 0.1109 µM and 0.07695 µM
FIH; 0.5 uM compound 1, time 3.49667 min
  SPE-MS determined concentration of hydroxylated HIF-1a peptide: 0.08826 µM and 0.1256 µM and 0.08643 µM
FIH; 1 uM compound 1, time 0.699833 min
  SPE-MS determined concentration of hydroxylated HIF-1a peptide: 0.05043 µM and 0.061 µM and 0.05097 µM
FIH; 1 uM compound 1, time 2.098 min
  SPE-MS determined concentration of hydroxylated HIF-1a peptide: 0.09957 µM and 0.1098 µM and 0.1306 µM
FIH; 1 uM compound 1, time 2.797 min
  SPE-MS determined concentration of hydroxylated HIF-1a peptide: 0.1199 µM and 0.1466 µM and 0.1681 µM
FIH; 1 uM compound 1, time 3.49667 min
  SPE-MS determined concentration of hydroxylated HIF-1a peptide: 0.1336 µM
FIH; 2 uM compound 1, time 0.699833 min
  SPE-MS determined concentration of hydroxylated HIF-1a peptide: 0.07885 µM and 0.08056 µM and 0.05916 µM
FIH; 2 uM compound 1, time 2.098 min
  SPE-MS determined concentration of hydroxylated HIF-1a peptide: 0.1678 µM and 0.1886 µM and 0.1681 µM
FIH; 2 uM compound 1, time 2.797 min
  SPE-MS determined concentration of hydroxylated HIF-1a peptide: 0.2164 µM and 0.22 µM and 0.1894 µM
FIH; 2 uM compound 1, time 3.49667 min
  SPE-MS determined concentration of hydroxylated HIF-1a peptide: 0.2473 µM and 0.2744 µM and 0.2266 µM
FIH; 4 uM compound 1, time 0.699833 min
  SPE-MS determined concentration of hydroxylated HIF-1a peptide: 0.1172 µM and 0.1135 µM and 0.107 µM
FIH; 4 uM compound 1, time 2.098 min
  SPE-MS determined concentration of hydroxylated HIF-1a peptide: 0.2558 µM and 0.2656 µM and 0.234 µM
FIH; 4 uM compound 1, time 2.797 min
  SPE-MS determined concentration of hydroxylated HIF-1a peptide: 0.3116 µM and 0.3222 µM and 0.2973 µM
FIH; 4 uM compound 1, time 3.49667 min
  SPE-MS determined concentration of hydroxylated HIF-1a peptide: 0.3622 µM and 0.3831 µM and 0.3473 µM
FIH; 8 uM compound 1, time 0.699833 min
  SPE-MS determined concentration of hydroxylated HIF-1a peptide: 0.1456 µM and 0.1338 µM and 0.1272 µM
FIH; 8 uM compound 1, time 2.098 min
  SPE-MS determined concentration of hydroxylated HIF-1a peptide: 0.3135 µM and 0.3095 µM and 0.2806 µM
FIH; 8 uM compound 1, time 2.797 min
  SPE-MS determined concentration of hydroxylated HIF-1a peptide: 0.4067 µM and 0.3823 µM and 0.3379 µM
FIH; 8 uM compound 1, time 3.49667 min
  SPE-MS determined concentration of hydroxylated HIF-1a peptide: 0.4757 µM and 0.4602 µM and 0.409 µM
FIH; 16 uM compound 1, time 0.699833 min
  SPE-MS determined concentration of hydroxylated HIF-1a peptide: 0.1765 µM and 0.1666 µM and 0.1574 µM
FIH; 16 uM compound 1, time 2.098 min
  SPE-MS determined concentration of hydroxylated HIF-1a peptide: 0.4139 µM and 0.367 µM and 0.3575 µM
FIH; 16 uM compound 1, time 2.797 min
  SPE-MS determined concentration of hydroxylated HIF-1a peptide: 0.521 µM and 0.462 µM and 0.4549 µM
FIH; 16 uM compound 1, time 3.49667 min
  SPE-MS determined concentration of hydroxylated HIF-1a peptide: 0.6245 µM and 0.5486 µM and 0.5372 µM
FIH; 32 uM compound 1, time 0.699833 min
  SPE-MS determined concentration of hydroxylated HIF-1a peptide: 0.1826 µM and 0.1844 µM and 0.1573 µM
FIH; 32 uM compound 1, time 2.098 min
  SPE-MS determined concentration of hydroxylated HIF-1a peptide: 0.3964 µM and 0.4231 µM and 0.3597 µM
FIH; 32 uM compound 1, time 2.797 min
  SPE-MS determined concentration of hydroxylated HIF-1a peptide: 0.4756 µM and 0.5305 µM and 0.4654 µM
FIH; 32 uM compound 1, time 3.49667 min
  SPE-MS determined concentration of hydroxylated HIF-1a peptide: 0.5827 µM and 0.6364 µM and 0.5668 µM
FIH; CA1-20, 1 μM 1
  slope of initial reaction rate: 0.003599 and 0.003561 and 0.003828
FIH; CA1-20, 2 μM 1
  slope of initial reaction rate: 0.005878 and 0.006514 and 0.003549
FIH; CA1-20, 4 μM 1
  slope of initial reaction rate: 0.007274 and 0.005274 and 0.008096
FIH; CA1-20, 8 μM 1
  slope of initial reaction rate: 0.01215 and 0.01007 and 0.00891
FIH; HIF-1a788-822, 0.5 μM 1
  slope of initial reaction rate: 0.000467 and 0.000683 and 0.000488
FIH; HIF-1a788-822, 1 μM 1
  slope of initial reaction rate: 0.000739 and 0.000996 and 0.000679
FIH; HIF-1a788-822, 2 μM 1
  slope of initial reaction rate: 0.001185 and 0.001312 and 0.001139
FIH; HIF-1a788-822, 4 μM 1
  slope of initial reaction rate: 0.001713 and 0.001863 and 0.001678
FIH; HIF-1a788-822, 8 μM 1
  slope of initial reaction rate: 0.002198 and 0.002166 and 0.001912
FIH; HIF-1a788-822, 16 μM 1
  slope of initial reaction rate: 0.002859 and 0.002469 and 0.002609
FIH; HIF-1a788-822, 32 μM 1
  slope of initial reaction rate: 0.002446 and 0.002883 and 0.002629
AspH
  AspH activity, %-substrate conversion: >95%

## O=C(O)CCC(=O)C(=O)O [2OG, 2-Oxoglutarate]
FIH; CA1-20, 0.25 μM 2OG
  slope of initial reaction rate: 0.01003 and 0.007495
FIH; CA1-20, 0.5 μM 2OG
  slope of initial reaction rate: 0.01547 and 0.01452 and 0.0138
FIH; CA1-20, 1 μM 2OG
  slope of initial reaction rate: 0.01838 and 0.01865 and 0.02116
FIH; CA1-20, 2 μM 2OG
  slope of initial reaction rate: 0.02416 and 0.02022 and 0.02356
FIH; CA1-20, 4 μM 2OG
  slope of initial reaction rate: 0.02388 and 0.01977 and 0.02365
FIH; CA1-20, 8 μM 2OG
  slope of initial reaction rate: 0.02261 and 0.02524
FIH; HIF-1a788-822, 0.1 μM 2OG
  slope of initial reaction rate: 0.000581 and 0.000778 and 0.00072
FIH; HIF-1a788-822, 0.25 μM 2OG
  slope of initial reaction rate: 0.001141 and 0.001302 and 0.001382
FIH; HIF-1a788-822, 0.5 μM 2OG
  slope of initial reaction rate: 0.001962 and 0.002167 and 0.002275
FIH; HIF-1a788-822, 1 μM 2OG
  slope of initial reaction rate: 0.003115 and 0.003005 and 0.00301
FIH; HIF-1a788-822, 2 μM 2OG
  slope of initial reaction rate: 0.00418 and 0.004157 and 0.004411
FIH; HIF-1a788-822, 4 μM 2OG
  slope of initial reaction rate: 0.004637 and 0.004674 and 0.005127
FIH; HIF-1a788-822, 8 μM 2OG
  slope of initial reaction rate: 0.004319 and 0.005019 and 0.005929
FIH; HIF-1a788-822, 16 μM 2OG
  slope of initial reaction rate: 0.00539 and 0.005468 and 0.006359
FIH; HIF-1a788-822, 32 μM 2OG
  slope of initial reaction rate: 0.006447 and 0.005635
FIH; HIF-1α788–822 substrate
  FIH Kmapp: 0.84 µM

## O=C(O)C(=O)CC(CCCc1ccccc1)C(=O)O (centres unmarked) [compound 18, 4-(3-phenylpropyl)-2OG]
AspH
  AspH activity, %-substrate conversion: <1%
